≈ marks a conversion by molar mass, not a printed value.
Columns and labels:
[1] = tested on: N. gonorrhoeae ATCC 49226; test: MIC assay for N. gonorrhoeae, broth microdilution in Todd-Hewitt (TH) broth; assay type: cell-based; details: Neisseria gonorrhoeae, ATCC49226; Antibacterial Activity against N. gonorrhoeae ATCC 49226 in TH
Description: MIC assays for N. gonorrhoeae were done using the ATCC 49226 strain. The procedure guidelines recommended by the Clinical and Laboratory Standards Institute (CLSI) for the broth microdilution MIC assay were modified by substituting […]. Also, the recommended bacterial inoculum was modified to meet the high inoculum demands needed for N. gonorrhoeae growth. A 96-well plate containing TH broth with 2-fold serial dilution of compounds was inoculated with log-phase bacterial at 2.5×10^7 CFU/mL. The final volume in each well was 200 μL. Each compound was tested in duplicate. The microtiter plates were incubated in an […] environment for 24 hours at 37° C. using the candle jar technique. Then the bacterial growth was tested by reading the plate with a SpectraMax iD5 plate reader (Molecular Devices, Inc.) at 600 nm. The MIC was defined as the lowest compound concentration that inhibited bacteria growth.

P. aeruginosa ATCC 27853 = test: MIC assay, CLSI broth microdilution in CAMH broth; assay type: cell-based, Pseudomonas aeruginosa; details: P. aeruginosa ATCC 278538
Experimental: (§1) MIC assays for various Gram-negative and Gram-positive strains were conducted in accordance with the CLSI guidelines for broth microdilution. A 96-well plate containing CAMH broth with 2-fold serial dilution of compounds was inoculated with log-phase bacterial at 5×10^5 CFU/mL. The final volume in each well was 100 μL. Each compound was tested in duplicate. The microtiter plates were incubated in an aerobic environment for 18 hours at 37° C. Then the bacterial growth was tested by reading the plate with a SpectraMax iD5 plate reader (Molecular Devices, Inc.) at 600 nm. The MIC was defined as the lowest compound concentration that inhibited bacteria growth.
(§2) The following Gram-negative and Gram-positive strains were used in the aerobic MIC procedure: • P. aeruginosa ATCC 27853 • A. baumannii ATCC 19606 • E. coli ATCC 25922 • E. coli W4573 • E. coli N43 • K. pneumoniae ATCC 10031 • K. pneumoniae ATCC 13883 • S. sonnei ATCC 29930 • P. mirabilis ATCC 29906 • Methicillin-susceptible S. aureus (MSSA) ATCC 19636 • Methicillin-resistant S. aureus (MRSA) ATCC 33951

E. coli W4573 = test: MIC assay, CLSI broth microdilution in CAMH broth; assay type: cell-based, Escherichia coli
Experimental: as §1, §2

K. pneumoniae ATCC 10031 = test: MIC assay, CLSI broth microdilution in CAMH broth; assay type: cell-based, Klebsiella pneumoniae; details: K. pneumonias ATCC 10031
Experimental: as §1, §2

K. pneumoniae ATCC 13883 = test: MIC assay, CLSI broth microdilution in CAMH broth; assay type: cell-based, Klebsiella pneumoniae; details: K. pneumonias ATCC 13883
Experimental: as §1, §2

P. mirabilis ATCC 29906 = test: MIC assay, CLSI broth microdilution in CAMH broth; assay type: cell-based, Proteus mirabilis
Experimental: as §1, §2

[2] = tested on: Methicillin-susceptible S. aureus (MSSA) ATCC 19636; test: MIC assay, CLSI broth microdilution in CAMH broth; assay type: cell-based, Staphylococcus aureus
Experimental: as §1, §2

[3] = tested on: Methicillin-resistant S. aureus (MRSA) ATCC 33591; test: MIC assay, CLSI broth microdilution in CAMH broth; assay type: cell-based, Staphylococcus aureus
Experimental: as §1, with “growth. […]” for “growth.”

E. coli N43 = test: MIC assay, CLSI broth microdilution in CAMH broth; assay type: cell-based, Escherichia coli
Experimental: as §1, §2

Structure (SMILES) | MIC [1] [µg/mL] | Intrinsic MIC in CAMH (P. aeruginosa ATCC 27853) | Intrinsic MIC in CAMH (E. coli W4573) | Intrinsic MIC in CAMH (K. pneumoniae ATCC 10031) | Intrinsic MIC in CAMH (K. pneumoniae ATCC 13883) | Intrinsic MIC in CAMH (P. mirabilis ATCC 29906) | Intrinsic MIC in CAMH [2] | Intrinsic MIC in CAMH [3] | Intrinsic MIC in CAMH (E. coli N43)
Nc1nc(N)c2ccc3c(ccn3Cc3cc(Br)ccc3F)c2n1 [Example 34, 7-(5-bromo-2-fluorobenzyl)-7H-pyrrolo[2,3-h]quinazoline-2,4-diamine] | 16 (≈ 41.4 µM) | >64¤ | 2¤ | <0.125¤ | 64¤ | 64¤ | ≤0.063¤ | ≤0.063¤ | 
Nc1nc(N)c2ccc3c(ccn3Cc3ccc(Br)cc3Br)c2n1 [Example 35, 7-(2,4-dibromobenzyl)-7H-pyrrolo[2,3-h]quinazoline-2,4-diamine] | 4 (≈ 8.95 µM) | >64¤ | 8¤ | 0.25¤ | >64¤ | >64¤ | 0.5¤ | 1¤ | <0.125¤
Nc1nc(N)c2ccc3c(ccn3Cc3ccc(-c4ccccc4C(F)(F)F)cc3)c2n1 [Example 36, 7-((2′-(trifluoromethyl)-[1,1′-biphenyl]-4-yl)methyl)-7H-pyrrolo[2,3-h]quinazoline-2,4-diamine] | 8 (≈ 18.5 µM) | >64¤ | 8¤ | 1¤ | >64¤ | >64¤ | 0.5¤ | 0.5¤ | <0.125¤
N#Cc1cc(F)ccc1-c1ccc(Cn2ccc3c4nc(N)nc(N)c4ccc32)cc1 [Example 37, 4′-((2,4-diamino-7H-pyrrolo[2,3-h]quinazolin-7-yl)methyl)-4-fluoro-[1,1′-biphenyl]-2-carbonitrile] | 1 (≈ 2.45 µM) | >64¤ | 8¤ | 0.25¤ | >64¤ | >64¤ | 0.125¤ | 0.125¤ | <0.125¤
N#Cc1ccccc1-c1ccc(Cn2ccc3c4nc(N)nc(N)c4ccc32)cc1F [Example 38, 4′-((2,4-diamino-7H-pyrrolo[2,3-h]quinazolin-7-yl)methyl)-2′-fluoro-[1,1′-biphenyl]-2-carbonitrile] | 0.125 (≈ 0.306 µM) | >64¤ | 1¤ | <0.125¤ | 16¤ | >64¤ | ≤0.063¤ | ≤0.063¤ | 
N#Cc1ccccc1-c1ccc(Cn2ccc3c4nc(N)nc(N)c4ccc32)c(F)c1 [Example 39, 4′-((2,4-diamino-7H-pyrrolo[2,3-h]quinazolin-7-yl)methyl)-3′-fluoro-[1,1′-biphenyl]-2-carbonitrile] |  | >64¤ | 8¤ | 1¤ | >64¤ | >64¤ | ≤0.063¤ | ≤0.063¤ | ≤0.063¤
Nc1nc(N)c2ccc3c(ccn3CC#Cc3ccccc3)c2n1 [Example 41, 7-(3-phenylprop-2-yn-1-yl)-7H-pyrrolo[2,3-h]quinazoline-2,4-diamine] | 8 (≈ 25.5 µM) | >64¤ | 2¤ | <0.125¤ | 8¤ | >64¤ | 0.5¤ | 1¤ | 
C#Cc1ccc(Cn2ccc3c4nc(N)nc(N)c4ccc32)cc1 [Example 42, 7-(4-ethynylbenzyl)-7H-pyrrolo[2,3-h]quinazoline-2,4-diamine] | 8 (≈ 25.5 µM) | >64¤ | 4¤ | <0.125¤ | 32¤ | 32¤ | ≤0.063¤ | ≤0.063¤ | 
Nc1nc(N)c2ccc3c(ccn3Cc3ccc(C#Cc4ccccc4)cc3)c2n1 [Example 43, 7-(4-(phenylethynyl)benzyl)-7H-pyrrolo[2,3-h]quinazoline-2,4-diamine] | > 64 | >64¤ | >64¤ | >64¤ | >64¤ | >64¤ | 32¤ | 2¤ | 32¤
Nc1nc(N)c2ccc3c(ccn3Cc3cccc(C#Cc4ccccc4)c3)c2n1 [Example 44, 7-(3-(phenylethynyl)benzyl)-7H-pyrrolo[2,3-h]quinazoline-2,4-diamine] |  | >64¤ | >64¤ | 32¤ | >64¤ | >64¤ | 2¤ | 1¤ | 4¤
Nc1nc(N)c2ccc3c(ccn3Cc3cccc(C#Cc4ccccc4C(F)(F)F)c3)c2n1 [Example 45, 7-(3-((2-(trifluoromethyl)phenyl)ethynyl)benzyl)-7H-pyrrolo[2,3-h]quinazoline-2,4-diamine] |  | >64¤ | >64¤ | >64¤ | >64¤ | >64¤ | 2¤ | 2¤ | 32¤
N#Cc1ccccc1-c1ccc(Cn2ccc3c4nc(N)nc(N)c4cnc32)cc1 [Example 49, 4′-((2,4-diamino-7H-pyrrolo[3′,2′:5,6]pyrido[4,3-d]pyrimidin-7-yl)methyl)-[1,1′-biphenyl]-2-carbonitrile] |  | >64¤ | >64¤ | 0.5¤ | >64¤ | >64¤ | ≤0.063¤ | ≤0.063¤ | <0.125¤
Nc1nc(N)c2cnc3c(ccn3Cc3cccc(Br)c3)c2n1 [Example 50, 7-(3-bromobenzyl)-7H-pyrrolo[3′,2′:5,6]pyrido[4,3-d]pyrimidine-2,4-diamine] |  | >64¤ | 32¤ | 1¤ | >64¤ | >64¤ | ≤0.063¤ | ≤0.063¤ | ≤0.063¤
N#Cc1ccccc1-c1ccc(CNc2nc(N)c3cnc4c(ccn4Cc4ccc(-c5ccccc5C#N)c(F)c4)c3n2)cc1F [Example 52, 4′-((4-amino-2-(((2′-cyano-2-fluoro-[1,1′-biphenyl]-4-yl)methyl)amino)-7H-pyrrolo[3′,2′:5,6]pyrido[4,3-d]pyrimidin-7-yl)methyl)-2′-fluoro-[1,1′-biphenyl]-2-carbonitrile] |  |  |  |  |  | >64¤ | >64¤ | >64¤ | 
C#Cc1ccc(Cn2ccc3c4nc(N)nc(N)c4cnc32)cc1 [Example 53, 7-(4-ethynylbenzyl)-7H-pyrrolo[3′,2′:5,6]pyrido[4,3-d]pyrimidine-2,4-diamine] |  |  |  |  |  | >64¤ | ≤0.063¤ | ≤0.063¤ | 

From US20240317749A1, “THERAPEUTIC COMPOUNDS” (priority 2021, published 2024)
